Test: solubility of the calcium salt in aqueous methanol / methanol
Type: physicochemical

Compound: CC(C)c1nc(N(C)S(C)(=O)=O)nc(-c2ccc(F)cc2)c1/C=C/[C@@H](O)C[C@@H](O)CC(=O)[O-].CC(C)c1nc(N(C)S(C)(=O)=O)nc(-c2ccc(F)cc2)c1/C=C/[C@@H](O)C[C@@H](O)CC(=O)[O-].[Ca+2] [formula (1a), rosuvastatin calcium]
- solubility in an aqueous methanol (calcium salt prepared by the present invention (calcium acetate as calcium source)): freely soluble
- solubility in an aqueous methanol (calcium salt prepared by the prior art process (U.S. Pat. No. 5,260,440; sodium chloride byproducts)): poor solubility

From patent publication US8455640B2, “Process for statins and its pharmaceutically acceptable salts thereof” (MSN Laboratories Limited, priority 2006, dated 2013)
